Assay results published in patent US10722480B2, “Agent for controlling cells constituting cancer microenvironment or inflammatory microenvironment” (The University of Tokyo, priority 2015, dated 2020).
Where two headings read alike, the source gives them in different places.

How the values were obtained:
LLC tumor cells = assay: LDH cytotoxicity assay, LLC tumor cells; assay type: cell-based
Protocol: (§1) The cytotoxicity of inhibitors was tested by using LDH Cytotoxicity Detection Kit (TaKaRa) according to the manufacturer's instructions. Briefly, tumor cells were cultured in the presence or absence of an agent (disulfiram or 5FU) for 72 hours, and the culture supernatant was then collected and tested for the concentration of lactate dehydrogenase released from damaged cells. For measurement of cell proliferation, cells were incubated in a plate well together with an inhibitor for 48 hours. During the last 30 minutes, WST-1 (Dojindo Laboratories) was added to the culture liquid, and the absorbance of each well was measured at 450 nm versus 650 nm reference using EnVision (PerkinElmer) to detect the formazan level.

B16F10 melanoma cells [1] = assay: LDH cytotoxicity assay, B16F10 melanoma cells; assay type: cell-based
Protocol: as §1

B16F10 melanoma cells [2] = assay: Lung metastasis model (B16F10); assay type: in vivo, mouse; conditions: B16F10 via tail vein, Day 9 post tumor administration
Protocol: To provide a lung metastasis model, 1×10^6 B16F10 melanoma cells were suspended in 200 μL of PBS, and administered from the tail vein of each of wild-type C57BL/6 mice. Administration of the inhibitor was carried out one day before, 30 minutes before, and one day after the tumor administration. To provide a control, DMSO and a pyrimidine fluoride anticancer drug 5-FU were administered. The mice were euthanized on Day 9 post tumor administration, and PBS was perfused from the left ventricle, followed by isolation of lungs. Visible lung metastatic lesions in the left lobe were counted.

B16F10 melanoma cells [3] = assay: WST-1 proliferation assay, B16F10 melanoma cells; assay type: cell-based; conditions: WST-1, 48 hours
Protocol: as §1

FROUNT-CCR2 interaction = molecular target: T1, FROUNT-CCR2 interaction (Homo sapiens, UniProt Q9BW27); assay: HTRF binding inhibition assay, FROUNT-CCR2 interaction
T1 construct: made in house
T1 sequence (Q9BW27 500-656): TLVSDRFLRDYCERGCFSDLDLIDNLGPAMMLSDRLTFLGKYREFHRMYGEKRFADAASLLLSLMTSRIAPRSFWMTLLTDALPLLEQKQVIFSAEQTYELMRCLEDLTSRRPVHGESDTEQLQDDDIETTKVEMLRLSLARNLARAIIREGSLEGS
Protocol: For the screening, a compound library containing 131,200 kinds of compounds dissolved in DMSO at a concentration of 10 mM or 2 mM (obtained from Open Innovation Center for Drug Discovery, the University of Tokyo) was used. The HTRF assay was carried out using a 384-well low-dose white microplate (Corning Coaster; catalog number 3676). In each well, 4 μL of a solution of 20 nM GST fusion FROUNT protein (a recombinant polypeptide prepared by fusing GST to aa 500-656 of SEQ ID NO:2), and DMSO or test compounds were mixed with a binding buffer (10 mM HEPES [pH 7.4], 0.2 M potassium fluoride, 10 mM NaCl, 0.1% Tween 20, and 0.5% bovine serum albumin [BSA]), and the plate was incubated at room temperature for 30 minutes. […]. After incubation at room temperature for 20 hours, the HTRF signal was measured at emission wavelengths of 620 nm and 665 nm using a multilabel counter EnVision (PerkinElmer).
(§2) By the same HTRF assay as described above, the abilities of disulfiram to inhibit the FROUNT-CCR2 interaction or the FROUNT-CCR5 interaction were investigated. As the CCR5 pro-C peptide, the 16 residues […] (SEQ ID NO:4) in the C-terminal region of CCR5 was used. As a control, the p53-MDM2 interaction (which is inhibited by an MDM-2-specific inhibitor Nutlin), which is also a helix peptide-protein interaction like the interaction between FROUNT and CCR2 or CCR5 but is not related thereto, was used.

p53-MDM2 interaction = p53-MDM2 interaction (Homo sapiens, UniProt Q00987); assay: HTRF binding inhibition assay, p53-MDM2 control interaction; conditions: p53-MDM2 control interaction
Sequence of p53-MDM2 interaction (Q00987 whole entry): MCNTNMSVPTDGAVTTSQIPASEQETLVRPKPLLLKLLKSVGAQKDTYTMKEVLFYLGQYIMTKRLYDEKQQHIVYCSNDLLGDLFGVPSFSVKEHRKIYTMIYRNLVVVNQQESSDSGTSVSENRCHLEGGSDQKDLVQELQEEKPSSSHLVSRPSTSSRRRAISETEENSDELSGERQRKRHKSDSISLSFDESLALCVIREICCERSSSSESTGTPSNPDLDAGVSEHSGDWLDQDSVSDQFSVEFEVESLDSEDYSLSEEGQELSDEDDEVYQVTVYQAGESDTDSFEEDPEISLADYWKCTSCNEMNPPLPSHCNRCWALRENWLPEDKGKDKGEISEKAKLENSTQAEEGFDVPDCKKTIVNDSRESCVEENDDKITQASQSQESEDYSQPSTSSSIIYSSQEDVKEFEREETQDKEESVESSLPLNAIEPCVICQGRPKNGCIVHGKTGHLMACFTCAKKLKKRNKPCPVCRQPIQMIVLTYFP
Description: as §2

[4] = molecular target: T2, aldehyde dehydrogenase (ALDH) (Rattus norvegicus, UniProt P11884); conditions: Excerpt from Alcohol Clin Exp Res 1996.20.595-; read-out: ALDH inhibition; cited from earlier work
T2 sequence (P11884 20-519): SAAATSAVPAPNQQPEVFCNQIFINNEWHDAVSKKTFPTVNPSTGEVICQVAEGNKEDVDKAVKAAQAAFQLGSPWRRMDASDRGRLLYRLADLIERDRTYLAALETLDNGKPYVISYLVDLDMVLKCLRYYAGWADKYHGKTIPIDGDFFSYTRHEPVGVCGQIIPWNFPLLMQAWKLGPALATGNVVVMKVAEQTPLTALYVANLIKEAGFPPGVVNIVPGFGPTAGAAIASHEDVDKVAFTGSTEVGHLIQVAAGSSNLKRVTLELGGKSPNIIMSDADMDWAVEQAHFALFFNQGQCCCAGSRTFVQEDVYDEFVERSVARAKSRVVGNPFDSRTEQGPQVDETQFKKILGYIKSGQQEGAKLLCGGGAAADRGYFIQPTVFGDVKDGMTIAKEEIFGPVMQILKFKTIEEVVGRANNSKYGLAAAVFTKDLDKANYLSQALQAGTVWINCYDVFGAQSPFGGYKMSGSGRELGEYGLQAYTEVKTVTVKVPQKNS

[5] = HTRF, read-out: FROUNT inhibition (IC50 against FROUNT-CCR2)

| IC50 (FROUNT-CCR2 interaction; [5]) [nM] | IC50 (p53-MDM2 interaction) [nM] | Compound | IC50 [4] [nM] | also measured |
| --- | --- | --- | --- | --- |
| – | – | O=c1[nH]cc(F)c(=O)[nH]1 [5FU] | – | cytotoxic activity on LLC tumor cells (LLC tumor cells): completely killed; cytotoxic activity on B16F10 melanoma cells (B16F10 melanoma cells [1]): showed cytotoxic activity; formation of lung metastatic lesions (B16F10 melanoma cells [2]): did not reduce; growth-inhibiting action on B16F10 melanoma cells (B16F10 melanoma cells [3]): growth-inhibiting action |
| – | – | CCN(CC)C(=S)S [DDC, sodium diethyldithiocarbamate] | – | IC50 (FROUNT-CCR2 interaction): 137 nM |
| > 1000 | > 1000 | CCN(CC)C(=O)S(C)(=O)=O [Me-DTC sulfone] | 530 | – |
| > 1000 | > 1000 | CCN(CC)C(=O)[S+](C)[O-] (stereo not drawn) [Me-DTC sulfoxide] | 930 | – |

| Compound | IC50 (FROUNT-CCR2 interaction; [5]) [nM] | IC50 (p53-MDM2 interaction) [nM] | IC50 [4] [nM] | also measured |
| --- | --- | --- | --- | --- |
| CCN(CC)C(=S)[S-].CCN(CC)C(=S)[S-].CCN(CC)C(=S)[S-].[Fe+3] [iron (III) complex of DDC] | 9.2 | – | – | – |
